# Reference: patent publication US20240116891A1, “MARALIXIBAT SOLID FORMS, INTERMEDIATES AND PROCESSES OF MAKING SAME” (MIRUM PHARMACEUTICALS, INC., priority 2022, published 2024)
# Legend:
# Format in all cases: physicochemical
# [1] = Polymorph screening (stability of solid forms); conditions: for Relative stability of solid form in polymorph screening: under the conditions tested in this study
# Description: Form B was obtained from anti-solvent addition experiment with ACN/water from Form A. Form B was observed only as a wet cake, which convers back to Form A when air-dried. The XRPD, TGA/DSC, and PLM characterizations with the same parameters described above were performed. […] (FIG. 5). The weight loss started immediately with heat applied and it stopped 75° C.
# (§1) The approximate solubility of compound of Formula I (starting material, prepared as described above) was measured at RT in 20 different solvents. Approximately 2 mg of starting material were added into a 3-mL glass vial. Solvents were then added step wise into the vials until the solids were dissolved or a total volume of 1 mL was reached (Note: this is not thermodynamic solubility estimation, vortex and sonication were applied in between each solvent to accelerate the dissolution). Results summarized in Table 3-1 were used to guide the solvent selection for the polymorph screening. Beginning with the starting material, polymorph screening experiments were set up using methods of Slurry at different temperatures, Slow Cooling, Liquid and Solid Vapor Diffusion, Slow Evaporation, Anti-Solvent Addition and Ionic Liquid. The methods utilized, and crystal forms identified are summarized in Table 3-2 (Type A and Form A are used interchangeably and Type B and Form B are used interchangeably).
# As described above, polymorph screening experiments were set up using methods of Slurry at different temperatures, Slow Cooling, Liquid and Solid Vapor Diffusion, Slow Evaporation, Anti-Solvent Addition, and Ionic Liquid. Two types, Form A (anhydrate) and Form B (weak solvate) were obtained from the experiments.
# Further investigation was performed for Form B to better understand the phase origin.
# Other than Form B (i.e., Type B), no additional polymorph was observed during the rest of the screening. […]
# The approximate solubility of compound of Formula II (starting material) was determined at RT in 20 different solvents. […]
# The molecular structure was determined by single crystal X-ray diffraction.
# [2] = Characterization of anhydrate Form II of compound of Formula III
# Description: Anhydrate Form II of compound of Formula III was characterized by XRPD, TGA, DSC and HPLC. As shown in XRPD result (FIG. 11), the sample was crystalline and conformed to Form II. Its HPLC purity was determined to be 99.78 area %. […] (onset temperature) in DSC were observed. […] Form II is the stable form of compound of Formula III.
# [3] = DVS test of compound of Formula I
# [4] = Heat and light stressed stability of compound of Formula I in 95/5 (v/v) acetonitrile/isopropanol solution; conditions: for Purity, Chemical / Purity, Chiral: solution
# Description: In addition, the stressed stability in 95/5 (v/v) acetonitrile /isopropanol solutions was also evaluated (e.g., during the SMB separation and successive work-up). Samples were stored under two different conditions over a period of 10 days: exposed to light at room temperature and in an oven at 60° C.
# [5] = Long-term stability study of compound of Formula I, 25° C./60% RH
# Description: Long-term and accelerated stability studies were performed as below using the compound of Formula I prepared as described in Example 2.1.
# Tests include appearance, purity by HPLC, assay by HPLC, chiral purity by HPLC, and water by KF titration. […]
# [6] = Approximate solubility of starting material at RT in 20 solvents
# Description: as §1
# The approximate solubility of compound of Formula II (starting material) was determined at RT in 20 different solvents. Approximately 2 mg of the material were added into a 2-mL glass vial. Solvents were then added step into the vials until the solids were dissolved or a total volume of 1 mL was reached (Note: this is not a thermodynamic solubility estimation; vortex and sonication were applied in between each solvent addition to accelerate the dissolution). Results summarized in Table 5-1 were used to guide the solvent selection for the polymorph screening. Beginning with the starting material, polymorph screening experiments were set up using methods of Slurry at different temperatures, Slow Cooling, Liquid and Solid Vapor Diffusions, Slow Evaporation, Anti-Solvent Addition, and Ionic Liquid. No new polymorphs were observed during the screening. Type X and Form X are used interchangeably.
# [7] = Wet cake drying study on compound of Formula II
# Description: The wet cake drying study on compound of Formula II was carried out on a sample (98.67% purity of compound of Formula II) in an open dish held at 40° C. under vacuum. The sample was analyzed after one week (98.79% purity of compound of Formula II) and since the sample was stable, the study was extended another month. […] (98.74% purity of compound of Formula II).
# [8] = organic solvent or mixture, ACN
# [9] = organic solvent or mixture, Acetone
# [10] = organic solvent or mixture, Cyclohexane
# [11] = organic solvent or mixture, DCM
# [12] = organic solvent or mixture, DMF
# [13] = organic solvent or mixture, DMSO
# [14] = organic solvent or mixture, EtOAc
# [15] = organic solvent or mixture, EtOH
# [16] = organic solvent or mixture, IPA
# [17] = organic solvent or mixture, IPAc
# [18] = organic solvent or mixture, MIBK
# [19] = organic solvent or mixture, MTBE
# [20] = organic solvent or mixture, MeOH
# [21] = organic solvent or mixture, MeTHF
# [22] = organic solvent or mixture, NMP
# [23] = organic solvent or mixture, Pentane
# [24] = organic solvent or mixture, Toluene
# [25] = organic solvent or mixture, n-Butyl Acetate
# [26] = organic solvent or mixture, n-Heptane
smiles,measurement,setting,value
"CCCCC1(CCCC)CS(=O)(=O)c2ccc(N(C)C)cc2[C@@H](c2ccc(OC)cc2)[C@H]1O [Form A, (4R,5R)-3,3-dibutyl-7-(dimethylamino)-4-hydroxy-5-(4-methoxyphenyl)-2,3,4,5-tetrahydrobenzo[b]thiepine 1,1-dioxide]",Relative stability of solid form in polymorph screening,[1],most stable form
"CCCCC1(CCCC)CS(=O)(=O)c2ccc(N(C)C)cc2[C@@H](c2ccc(OC)cc2)[C@H]1O [Form B, (4R,5R)-3,3-dibutyl-7-(dimethylamino)-4-hydroxy-5-(4-methoxyphenyl)-2,3,4,5-tetrahydrobenzo[b]thiepine 1,1-dioxide]",Solid form after air-drying of the wet cake (XRPD),[1]; air-dried overnight,converted back to Form A
"CCCCC1(CCCC)CS(=O)(=O)c2ccc(N(C)C)cc2[C@@H](c2ccc(OCc3ccc(C[N+]45CCN(CC4)CC5)cc3)cc2)[C@H]1O.[Cl-] [Form II, 1-(4-((4-((4R,5R)-3,3-dibutyl-7-(dimethylamino)-4-hydroxy-1,1-dioxido-2,3,4,5-tetrahydrobenzo[b]thiepin-5-yl)phenoxy)methyl)benzyl)-1,4-diazabicyclo[2.2.2] octan-1-ium chloride]",Stability of solid form,[2],stable form
"CCCCC1(CCCC)CS(=O)(=O)c2ccc(N(C)C)cc2[C@@H](c2ccc(O)cc2)[C@H]1O [Form X, (4R,5R)-3,3-dibutyl-7-(dimethylamino)-4-hydroxy-5-(4-hydroxyphenyl)-2,3,4,5-tetrahydrobenzo[b]thiepine 1,1-dioxide]",Relative stability of solid form in polymorph screening,[1],most stable form
"CCCCC1(CCCC)CS(=O)(=O)c2ccc(N(C)C)cc2[C@@H](c2ccc(OC)cc2)[C@H]1O [Formula I, (4R,5R)-3,3-dibutyl-7-(dimethylamino)-4-hydroxy-5-(4-methoxyphenyl)-2,3,4,5-tetrahydrobenzo[b]thiepine 1,1-dioxide]",Form transition before and after DVS test,[3],no form transition observed
same,Hygroscopicity by DVS,[3],Non-hygroscopic
same,Stability (chemical and chiral purity) for SMB operation and work-up,"[4]; 95/5 (v/v) acetonitrile/isopropanol, 10 days, light at RT or 60° C.",adequate stability
same,"Purity, Chemical","[4]; RT (light), Day 0",99.4 % a/a
same,"Purity, Chiral","[4]; RT (light), Day 0",99.6 % a/a
same,"Purity, Chemical","[4]; RT (light), Day 3",99.4 % a/a
same,"Purity, Chiral","[4]; RT (light), Day 3",99.6 % a/a
same,"Purity, Chemical","[4]; RT (light), Day 7",99.4 % a/a
same,"Purity, Chiral","[4]; RT (light), Day 7",99.7 % a/a
same,"Purity, Chemical","[4]; RT (light), Day 10",99.4 % a/a
same,"Purity, Chiral","[4]; RT (light), Day 10",99.4 % a/a
same,"Purity, Chemical","[4]; T = 60° C., Day 0",99.3 % a/a
same,"Purity, Chiral","[4]; T = 60° C., Day 0",99.7 % a/a
same,"Purity, Chemical","[4]; T = 60° C., Day 3",98.7 % a/a
same,"Purity, Chiral","[4]; T = 60° C., Day 3",99.5 % a/a
same,"Purity, Chemical","[4]; T = 60° C., Day 7",98.5 % a/a
same,"Purity, Chiral","[4]; T = 60° C., Day 7",99.8 % a/a
same,"Purity, Chemical","[4]; T = 60° C., Day 10",98.5 % a/a
same,"Purity, Chiral","[4]; T = 60° C., Day 10",99.7 % a/a
same,"Appearance (Color, morphology)",[5]; 0 months,Off-white
same,HPLC Assay,[5]; 0 months,95.5% w/w
same,HPLC Purity,[5]; 0 months,99.6% a/a
same,HPLC Purity - Chiral,[5]; 0 months,100.0% a/a
same,Water by KF Titration,[5]; 0 months,<0.1% w/w
same,"Appearance (Color, morphology)",[5]; 3 months,Off-white
same,HPLC Assay,[5]; 3 months,96.3% w/w
same,HPLC Purity,[5]; 3 months,99.9% a/a
same,HPLC Purity - Chiral,[5]; 3 months,100.0% a/a
same,Water by KF Titration,[5]; 3 months,<0.1% w/w
same,"Appearance (Color, morphology)",[5]; 6 months,Off-white
same,HPLC Assay,[5]; 6 months,96.4% w/w
same,HPLC Purity,[5]; 6 months,99.8% a/a
same,HPLC Purity - Chiral,[5]; 6 months,100.0% a/a
same,Water by KF Titration,[5]; 6 months,<0.1% w/w
same,"Appearance (Color, morphology)",[5]; 12 months,Off-white
same,HPLC Assay,[5]; 12 months,96.5% w/w
same,HPLC Purity,[5]; 12 months,99.8% a/a
same,HPLC Purity - Chiral,[5]; 12 months,100.0% a/a
same,Water by KF Titration,[5]; 12 months,<0.1% w/w
same,solubility,[6]; [8],> 44 mg/mL
same,solubility,[6]; [9],> 54 mg/mL
same,solubility,[6]; [10],< 2 mg/mL
same,solubility,[6]; [11],> 58 mg/mL
same,solubility,[6]; [12],> 48 mg/mL
same,solubility,[6]; [13],> 50 mg/mL
same,solubility,[6]; [14],> 40 mg/mL
same,solubility,[6]; [15],27 to 54 mg/mL
same,solubility,[6]; [16],7.3 to 22 mg/mL
same,solubility,[6]; [17],24 to 48 mg/mL
same,solubility,[6]; [18],> 50 mg/mL
same,solubility,[6]; [19],9.3 to 28 mg/mL
same,solubility,[6]; [20],29 to 58 mg/mL
same,solubility,[6]; [21],> 56 mg/mL
same,solubility,[6]; [22],> 46 mg/mL
same,solubility,[6]; [23],< 2.7 mg/mL
same,solubility,[6]; [24],> 54 mg/mL
same,solubility,[6]; [25],> 56 mg/mL
same,solubility,[6]; [26],< 2.8 mg/mL
same,solubility,"[6]; water, H2O",< 2.3 mg/mL
"CCCCC1(CCCC)CS(=O)(=O)c2ccc(N(C)C)cc2[C@@H](c2ccc(O)cc2)[C@H]1O [Formula II, (4R,5R)-3,3-dibutyl-7-(dimethylamino)-4-hydroxy-5-(4-hydroxyphenyl)-2,3,4,5-tetrahydrobenzo[b]thiepine 1,1-dioxide]",Purity of compound of Formula II,"[7]; open dish, 40° C. under vacuum, after one week",98.79%
same,Purity of compound of Formula II,"[7]; open dish, 40° C. under vacuum, study extended another month",98.74%
same,Hold time of the solid,[7]; under vacuum at 40° C.,at least a month
same,Purity of compound of Formula II,[7]; wet cake sample at start of study,98.67%
same,solubility,[6]; [8],2.9 to 9.7 mg/mL
same,solubility,[6]; [9],26 to 52 mg/mL
same,solubility,[6]; [10],< 2 mg/mL
same,solubility,[6]; [11],8.7 to 26 mg/mL
same,solubility,[6]; [12],> 40 mg/mL
same,solubility,[6]; [13],> 44 mg/mL
same,solubility,[6]; [14],20 to 40 mg/mL
same,solubility,[6]; [15],2.7 to 9.3 mg/mL
same,solubility,[6]; [16],2.6 to 8.7 mg/mL
same,solubility,[6]; [17],7.7 to 23 mg/mL
same,solubility,[6]; [18],21 to 43 mg/mL
same,solubility,[6]; [19],2.4 to 8 mg/mL
same,solubility,[6]; [20],7.3 to 22 mg/mL
same,solubility,[6]; [21],21 to 42 mg/mL
same,solubility,[6]; [22],> 44 mg/mL
same,solubility,[6]; [23],< 2.7 mg/mL
same,solubility,[6]; [24],< 2.8 mg/mL
same,solubility,[6]; [25],8.3 to 25 mg/mL
same,solubility,[6]; [26],< 2 mg/mL
same,solubility,"[6]; water, H2O",< 2 mg/mL
